Results on one molecule are retold here after patent US12324798B1, “Leonurine nanocomposite hydrogel and preparation methods and applications thereof” (WEST CHINA HOSPITAL OF SICHUAN UNIVERSITY, priority 2023, dated 2025).

Each structure is given as a SMILES string.

This assay concerns LPS-stimulated Raw264.7 cells. The assay can be described thus: Western blotting of pro-inflammatory cytokines. It is filed as cell-based. To be noted: WB; co-culture with LPS-stimulated Raw264.7 cells for 2 days; vs LPS. The protocol:
In some embodiments, to assess whether M1 macrophage-targeted FA-PDA nanocarriers enhance the efficiency of anti-inflammatory therapy with loaded Leon, FA-PDA@Leon was co-cultured with LPS-stimulated Raw264.7 cells for 2 days, after which western blotting (WB) analysis was performed. A first group (Group 1) in FIG. 4G to FIG. 4J represents the control group (NC), a second group (Group 2) represents the LPS treatment, a third group (Group 3) represents the LPS and Leon co-treatment, a fourth group (Group 4) represents the LPS and PDA co-treatment, the fifth group (Group 5) represents the LPS and PDA@Leon co-treatment, and a sixth group (Group 6) indicates the LPS and FA-PDA@Leon co-treatment.
(In western blotting, separated proteins are transferred to a membrane and probed.)

On to `COc1cc(C(=O)OCCCCNC(=N)N)cc(OC)c1O` [Leon, leonurine], for which the “protein expression of pro-inflammatory cytokines (iNOS, IL-13, IL-6, TNF-α)” value is recorded as “down-regulated”.
